In patent US7422862B2, “Methods for identifying modulators of apoptosis” (The Burnham Institute, priority 2001, dated 2008):
d = 2'-deoxy (DNA); r = 2'-OH (RNA)

Tests used:
Type in all cases: cell-based
endogenous Bax protein = assay: Subcellular fractionation and immunoblot of endogenous Bax after STS; settings: SF268 cells, Humanin knocked-down by siRNA
Method: (A-B) Humanin peptide prevents STS-induced Bax translocation in vivo. Cos-7 cells were first transfected with GFP-Bax plasmids. After 24 hrs, untagged wild-type or C8P mutant Humanin peptides were introduced into cells using ChariotTM reagent, and 2 h later cells were treated with 1 μM STS. After 4 h, the percentage of cells with translocated Bax was determined (mean±SD; n=3) by confocal microscopy (A) and representative photomicrographs (B). (C) Wild-type or C8P mutant Humanin peptides were introduced into Cos7 cells using ChariotTM reagent. Cytosolic (C) and mitochondria-containing (M) fractions were isolated by differential centrifugation 23 and analyzed by immunoblotting using anti-Bax (top), Hsp60 (middle) (mitochondrial marker), or Tubulin (bottom) (cytosol marker) antibodies. (D) HN or mutant control double-strand siRNAs were transfected into SF268 cells. After 48 h, cells were cultured without (Control) or with 0.1 uM STS. After 24 hr, cells were fractionated and analyzed by immunoblotting as above. […] After 3 h at 30° C., mitochondria were centrifuged and the resulting pellets (P) and supernatants (S) were analyzed by immunoblotting using anti-Cytochrome c (top), Hsp60 (middle), and Bax (bottom) antibodies. […]
These findings were also confirmed by subcellular fractionation, where cytosol and mitochondria-enriched heavy membrane preparations were prepared from Cos7 cells transduced with untagged Humanin or Humanin(C8P) peptides, and the relative amounts of endogenous Bax protein in these two fractions were measured by immunoblot analysis of samples normalized for cell-equivalents. […] Differences in the relative potency of Humanin at blocking Bax translocation as measured by microscopy (FIG. 7A) versus cell fractionation methods (FIG. 7C) can be explained by differences in the sensitivity of the assays, or could possibly indicate that even in cells where some Bax translocation has occurred, less of the total Bax protein associated with mitochondria. […]

SF268 cells = assay: STS-induced apoptosis in siRNA-transfected SF268 cells; settings: 0.1 μM STS 8 hrs
Method: (§1) (A-D) CMS14.1 neuronal cells were transfected with plasmids encoding Flag-HN peptide or Flag-control (27-amino-acid) peptide, together with GFP-encoding plasmid at 4:1 ratio. Cells were either cultured without further treatment (open bars) or subjected to various apoptotic stimuli for various times (dark bars), including (A) STS for 8 h (dark symbols=Flag-control; open symbols=Flag-HN), (B) Serum-deprivation for 72 h, (C) 10 joules/m2 Uvirradiation followed by 24 h culture, and (D) 50 ng/ml TNFa in […] for 24 h. Cells were then fixed and stained with DAPI to determine the percentage of apoptotic cells, evaluating=200 GFP-positive cells per sample (mean±SD; n=3). (inset) Lysates prepared from replicate cultures of transfected cells were normalized for total protein content and analyzed by immunoblotting using anti-Flag (top) and anti-tubulin (bottom) antibodies, confirming production of similar amounts of Flag-control and Flag-HN peptides. […] (Upper panel) After 72 hr, cell lysates were prepared and 100 ug was analyzed by immunoblotting using anti-HN and anti-tubulin (as a loading control) antibodies. (Lower panel) At 72 hr after siRNA transfection, SF268 cells were cultured with 0.1 μM STS for 8 hrs, then % apoptosis was determined (mean+std dev; n=3). […] Apoptosis (%) was measured 48 hrs later among GFP-positive cells. […]

endogenous Humanin = assay: siRNA knock-down of endogenous Humanin in SF268 cells (immunoblotting)
Method: as §1

For “Humanin siRNA: double-strand siRNA, sense r(CCAGUGAAAUUGACCUGCC)d(TT), SEQ ID NO:25/26 (sense CCAGUGAAAUUGACCUGCCNN; antisense GGCAGGUCAAUUUCACUGGNN; sugars from the 5' end r19 d2, backbone and the base at N not given here)”, the “STS-induced translocation of Bax to membranes” value (endogenous Bax protein) was “enhanced”, the “sensitivity to STS-induced apoptosis” value (SF268 cells) was “increased” and the “endogenous levels of Humanin peptide” value (endogenous Humanin) was “reduced”.
